Measurements reported in ChEMBL document CHEMBL1133640, “Structure-activity studies including a Psi(CH(2)-NH) scan of peptide YY (PYY) active site, PYY(22-36), for interaction with rat intestinal PYY receptors: development of analogues with potent in vivo activity in the intestine” (J Med Chem, 2000).
pIC50: −log10 of the molar value. *1 amine or outer side, *2 acyl side, *3 side chain or, on linkers, in order; H or OH if unused. Where a SMILES comes first, the peptide text is derived from it. Bridges are numbered along the chain shown (N, C = ends). Roman numbers before positions name the chains, in order. Side-chain parts run from the residue outwards. [ ]: non-standard residue; d: D form. The star is where a group is joined. Argψ(CH2NH)TyrNH2 = N=C(N)NCCC[C@@H](CN[C@@H](Cc1ccc(O)cc1)C(N)=O)N*; X4 = NC(N)=NCCC[C@@H](CN([C@@H](Cc1c[nH]cn1)C(=O)[*:2])[*:1])N[*:3]; X3 = CC(C)C[C@@H](CN([C@@H](CCCNC(=N)N)C(=O)[*:2])[*:1])N[*:3]; Dip = N[C@H](C(=O)O)C(c1ccccc1)c1ccccc1; 1Nal = N[C@@H](Cc1cccc2ccccc12)C(=O)O; 3Thi = N[C@@H](Cc1ccsc1)C(=O)O

What was measured:
[1] = biological target: Neuropeptide Y receptor type 1 (Homo sapiens, UniProt P25929); test: Affinity against Neuropeptide Y receptor Y1 in SK-N-MC cell line; assay type: cell-based
[2] = biological target: T1, Neuropeptide Y receptor type 2 (Homo sapiens, UniProt P49146); test: Affinity against Neuropeptide Y receptor Y2 in SK-N-BE2 cell line
T1 sequence (P49146 whole entry): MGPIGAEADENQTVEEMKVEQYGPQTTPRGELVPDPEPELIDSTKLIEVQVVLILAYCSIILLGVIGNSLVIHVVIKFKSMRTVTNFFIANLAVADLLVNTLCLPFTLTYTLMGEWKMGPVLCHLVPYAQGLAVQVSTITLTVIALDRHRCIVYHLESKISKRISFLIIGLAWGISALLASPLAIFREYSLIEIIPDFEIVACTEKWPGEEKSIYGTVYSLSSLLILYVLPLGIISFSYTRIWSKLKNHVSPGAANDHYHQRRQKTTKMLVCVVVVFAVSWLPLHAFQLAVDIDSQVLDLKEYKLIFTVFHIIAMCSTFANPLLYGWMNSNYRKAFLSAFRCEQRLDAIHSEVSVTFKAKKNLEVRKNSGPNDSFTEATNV

[3] = biological target: Neuropeptide Y receptor type 2 (Rattus norvegicus, UniProt Q9ERC0); test: Antisecretory potency, affinity for intestinal PYY of rat jejunum by using short circuit current (SCC) method.; assay type: tissue-based
Neuropeptide Y receptor type 2 (Rattus norvegicus, UniProt Q9ERC0), sequence (Q9ERC0 whole entry): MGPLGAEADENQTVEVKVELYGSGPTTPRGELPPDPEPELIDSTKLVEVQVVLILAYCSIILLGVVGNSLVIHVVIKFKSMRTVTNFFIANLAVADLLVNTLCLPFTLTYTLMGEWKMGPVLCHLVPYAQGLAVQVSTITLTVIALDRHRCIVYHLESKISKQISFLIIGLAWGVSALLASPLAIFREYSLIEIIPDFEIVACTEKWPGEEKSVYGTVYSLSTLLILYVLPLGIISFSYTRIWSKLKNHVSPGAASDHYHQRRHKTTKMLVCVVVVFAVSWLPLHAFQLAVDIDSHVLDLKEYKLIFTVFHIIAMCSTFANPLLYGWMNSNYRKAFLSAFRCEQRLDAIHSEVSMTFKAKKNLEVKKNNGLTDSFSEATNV

Neuropeptide Y receptor type 1, sequence (P25929 whole entry): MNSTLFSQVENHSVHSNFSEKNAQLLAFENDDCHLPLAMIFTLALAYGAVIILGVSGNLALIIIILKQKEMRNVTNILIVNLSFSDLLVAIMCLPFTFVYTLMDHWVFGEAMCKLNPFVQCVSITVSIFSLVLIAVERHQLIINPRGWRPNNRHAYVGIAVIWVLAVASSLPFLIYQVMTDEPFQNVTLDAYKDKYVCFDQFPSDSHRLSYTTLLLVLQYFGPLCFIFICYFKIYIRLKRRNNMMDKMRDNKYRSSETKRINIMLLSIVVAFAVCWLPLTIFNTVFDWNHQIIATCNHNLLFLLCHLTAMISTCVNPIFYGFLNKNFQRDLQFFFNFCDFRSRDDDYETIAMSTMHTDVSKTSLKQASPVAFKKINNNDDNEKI

Compound: CC(=O)N[C@@H](C)C(=O)N[C@@H](CO)C(=O)N[C@@H](CC(C)C)C(=O)N[C@@H](CCCN=C(N)N)C(=O)N[C@@H](Cc1c[nH]cn1)C(=O)N[C@@H](Cc1ccc(O)cc1)C(=O)N[C@@H](CC(C)C)C(=O)N[C@@H](CC(N)=O)C(=O)N[C@@H](CC(C)C)C(=O)N[C@H](C(=O)N[C@H](C(=O)N[C@@H](CCCN=C(N)N)C(=O)N[C@@H](CCC(N)=O)C(=O)N[C@@H](CCCN=C(N)N)CN[C@@H](Cc1ccc(O)cc1)C(N)=O)[C@@H](C)O)C(C)C (Ac-ASLRHYLNLVTRQ-{Argψ(CH2NH)TyrNH2})
- pIC50 [1]: < 5.00
- pIC50 [2]: 8.88
- pIC50 [3]: 10.30

Compound: CC(=O)N[C@@H](C)C(=O)N[C@@H](CO)C(=O)N[C@@H](CC(C)C)C(=O)N[C@@H](CCCNC(=N)N)C(=O)N[C@@H](Cc1cnc[nH]1)C(=O)N[C@@H](Cc1ccc(O)cc1)C(=O)N[C@@H](CC(C)C)C(=O)N[C@@H](CC(N)=O)C(=O)N[C@@H](CC(C)C)C(=O)N[C@H](C(=O)N[C@H](C(=O)N[C@@H](CCCNC(=N)N)C(=O)N[C@@H](CCC(N)=O)C(=O)N[C@@H](CCCNC(=N)N)C(=O)N[C@H](C(N)=O)C(c1ccccc1)c1ccccc1)[C@@H](C)O)C(C)C (Ac-ASLRHYLNLVTRQR[Dip]-NH2)
- pIC50 [1]: 5.90
- pIC50 [2]: < 5.00
- pIC50 [3]: < 7.00

Compound: CC(=O)N[C@@H](C)C(=O)N[C@@H](CO)C(=O)N[C@@H](CC(C)C)C(=O)N[C@@H](CCCNC(=N)N)C(=O)N[C@@H](Cc1cnc[nH]1)C(=O)N[C@@H](Cc1ccc(O)cc1)C(=O)N[C@@H](CC(C)C)C(=O)N[C@@H](CC(N)=O)C(=O)N[C@@H](Cc1cccc2ccccc12)C(=O)N[C@H](C(=O)N[C@H](C(=O)N[C@@H](CCCNC(=N)N)C(=O)N[C@@H](CCC(N)=O)C(=O)N[C@@H](CCCNC(=N)N)C(=O)N[C@@H](Cc1ccc(O)cc1)C(N)=O)[C@@H](C)O)C(C)C (Ac-ASLRHYLN[1Nal]VTRQRY-NH2)
- pIC50 [1]: 6.80
- pIC50 [2]: 8.96
- pIC50 [3]: 8.45

Compound: CC(=O)N[C@@H](C)C(=O)N[C@@H](CO)C(=O)N[C@@H](CC(C)C)C(=O)N[C@@H](CCCN=C(N)N)C(=O)N[C@@H](Cc1c[nH]cn1)C(=O)N[C@@H](Cc1cccc2ccccc12)C(=O)N[C@@H](CC(C)C)C(=O)N[C@@H](CC(N)=O)C(=O)N[C@@H](CC(C)C)C(=O)N[C@H](C(=O)N[C@H](C(=O)N[C@@H](CCCN=C(N)N)C(=O)N[C@@H](CCC(N)=O)C(=O)N[C@@H](CCCN=C(N)N)C(=O)N[C@@H](Cc1ccc(O)cc1)C(N)=O)[C@@H](C)O)C(C)C (Ac-ASLRH[1Nal]LNLVTRQRY-NH2)
- pIC50 [1]: 7.05
- pIC50 [2]: 8.15
- pIC50 [3]: 8.18

Compound: CC(=O)N[C@@H](C)C(=O)N[C@@H](CO)C(=O)N[C@@H](CC(C)C)C(=O)N[C@@H](CCCN=C(N)N)C(=O)N[C@@H](Cc1c[nH]cn1)C(=O)N[C@@H](Cc1ccsc1)C(=O)N[C@@H](CC(C)C)C(=O)N[C@@H](CC(N)=O)C(=O)N[C@@H](CC(C)C)C(=O)N[C@H](C(=O)N[C@H](C(=O)N[C@@H](CCCN=C(N)N)C(=O)N[C@@H](CCC(N)=O)C(=O)N[C@@H](CCCN=C(N)N)C(=O)N[C@@H](Cc1ccc(O)cc1)C(N)=O)[C@@H](C)O)C(C)C (Ac-ASLRH[3Thi]LNLVTRQRY-NH2)
- pIC50 ([1]; sk-n-mc): 6.59
- pIC50 [2]: 8.58
- pIC50 [3]: 9.00

Compound: CC(=O)N[C@@H](C)C(=O)N[C@@H](CO)C(=O)N[C@@H](CC(C)C)C(=O)N[C@@H](CCCNC(=N)N)C(=O)N[C@@H](Cc1cnc[nH]1)C(=O)N[C@H](C(=O)N[C@@H](CC(C)C)C(=O)N[C@@H](CC(N)=O)C(=O)N[C@@H](CC(C)C)C(=O)N[C@H](C(=O)N[C@H](C(=O)N[C@@H](CCCNC(=N)N)C(=O)N[C@@H](CCC(N)=O)C(=O)N[C@@H](CCCNC(=N)N)C(=O)N[C@@H](Cc1ccc(O)cc1)C(N)=O)[C@@H](C)O)C(C)C)C(c1ccccc1)c1ccccc1 (Ac-ASLRH[Dip]LNLVTRQRY-NH2)
- pIC50 [1]: 6.35
- pIC50 [2]: 8.00
- pIC50 [3]: 7.78

Compound: CC(=O)N[C@@H](C)C(=O)N[C@@H](CO)C(=O)N[C@H](CN[C@@H](CCCNC(=N)N)C(=O)N[C@@H](Cc1cnc[nH]1)C(=O)N[C@@H](Cc1ccc(O)cc1)C(=O)N[C@@H](CC(C)C)C(=O)N[C@@H](CC(N)=O)C(=O)N[C@@H](CC(C)C)C(=O)N[C@H](C(=O)N[C@H](C(=O)N[C@@H](CCCNC(=N)N)C(=O)N[C@@H](CCC(N)=O)C(=O)N[C@@H](CCCNC(=N)N)C(=O)N[C@@H](Cc1ccc(O)cc1)C(N)=O)[C@@H](C)O)C(C)C)CC(C)C (H-[X3]([Ser-Ala-Ac])HYLNLVTRQRY-NH2)
- pIC50 [1]: 6.13
- pIC50 [2]: 7.23
- pIC50 [3]: 8.56

Compound: CC(=O)N[C@@H](C)C(=O)N[C@@H](CO)C(=O)N[C@@H](CC(C)C)C(=O)N[C@@H](CCCN=C(N)N)CN[C@@H](Cc1c[nH]cn1)C(=O)N[C@@H](Cc1ccc(O)cc1)C(=O)N[C@@H](CC(C)C)C(=O)N[C@@H](CC(N)=O)C(=O)N[C@@H](CC(C)C)C(=O)N[C@H](C(=O)N[C@H](C(=O)N[C@@H](CCCN=C(N)N)C(=O)N[C@@H](CCC(N)=O)C(=O)N[C@@H](CCCN=C(N)N)C(=O)N[C@@H](Cc1ccc(O)cc1)C(N)=O)[C@@H](C)O)C(C)C (H-[X4]([Leu-Ser-Ala-Ac])YLNLVTRQRY-NH2)
- pIC50 [1]: < 6.00
- pIC50 [2]: 7.39
- pIC50 [3]: 8.37

Compound: CC(=O)N[C@@H](C)C(=O)N[C@@H](CO)C(=O)N[C@@H](CSSC[C@H](NC(=O)[C@H](CO)NC(=O)[C@H](C)NC(C)=O)C(=O)N[C@@H](CCCNC(=N)N)C(=O)N[C@@H](Cc1cnc[nH]1)C(=O)N[C@@H](Cc1ccc(O)cc1)C(=O)N[C@@H](CC(C)C)C(=O)N[C@@H](CC(N)=O)C(=O)N[C@@H](CC(C)C)C(=O)N[C@H](C(=O)N[C@H](C(=O)N[C@@H](CCCNC(=N)N)C(=O)N[C@@H](CCC(N)=O)C(=O)N[C@@H](CCCNC(=N)N)C(=O)N[C@@H](Cc1ccc(O)cc1)C(N)=O)[C@@H](C)O)C(C)C)C(=O)N[C@@H](CCCNC(=N)N)C(=O)N[C@@H](Cc1cnc[nH]1)C(=O)N[C@@H](Cc1ccc(O)cc1)C(=O)N[C@@H](CC(C)C)C(=O)N[C@@H](CC(N)=O)C(=O)N[C@@H](CC(C)C)C(=O)N[C@H](C(=O)N[C@H](C(=O)N[C@@H](CCCNC(=N)N)C(=O)N[C@@H](CCC(N)=O)C(=O)N[C@@H](CCCNC(=N)N)C(=O)N[C@@H](Cc1ccc(O)cc1)C(N)=O)[C@@H](C)O)C(C)C (I: Ac-ASCRHYLNLVTRQRY-NH2 / II: Ac-ASCRHYLNLVTRQRY-NH2; disulfide I:3-II:3)
- pIC50 [1]: 6.96
- pIC50 [2]: 9.41
- pIC50 [3]: 9.20

Compound: Ac-ASLRAFLNLVTRQRY-NH2
- pIC50 [1]: 6.17
- pIC50 [2]: 8.42
- pIC50 [3]: 8.28

Compound: Ac-ASLRHFLNLVTRQRF-NH2
- pIC50 [1]: < 5.00
- pIC50 [2]: 8.94
- pIC50 [3]: 7.85

Compound: Ac-ASLRHFLNLVTRQRY-NH2
- pIC50 [1]: 6.12
- pIC50 [2]: 8.74
- pIC50 [3]: 8.64

Compound: Ac-ASLRHYWNWVTRQRY-NH2
- pIC50 [1]: 6.63
- pIC50 [2]: 8.50
- pIC50 [3]: 8.97

Compound: Ac-YSLRHFLNLVTRQRY-NH2
- pIC50 [1]: 7.31
- pIC50 [2]: 8.57
- pIC50 [3]: 8.47
